Experimental data from US20190029951A1, “EXTENDED RELEASE FORMULATIONS OF VELIPARIB FOR THE TREATMENT OF CANCER” (AbbVie Inc., priority 2016, published 2019).

What was measured:
Format in all cases: in vivo, human
ovarian cancer = assay: Best tumor response in patients with ovarian cancer; details: patients with OC, 8/44
Text: (§1) The term “efficacy” as used herein refers to an inhibitory effect on tumor growth, which can be manifested as slowing, retarding, arresting or even reversing (i.e., shrinking) growth of the tumor. In some embodiments, the effect on tumor growth is associated with suppression by a PARP inhibitory compound, for example Veliparib. In clinical sittings, efficacy can be measured by one skilled in the art and by a number of efficacy endpoints, for example, overall survival (OS), progression free survival (PPS), time to progression (TTP), time to treatment failure (TTF), event-free survival (EFS), time to next treatment (TINT), objective response rate (ORR), duration of response (DoR), and/or response rate, for example, partial response (PR) or complete response (CR). The term “partial response” or “PR” as used herein, means a partial response of the target lesion, indicated by at least a 30% decrease in the sum of diameters of target lesions, taking as reference the baseline sum diameters.
(§2) Eligible patients had metastatic BRCA+ cancer, BRCA± high-grade serious ovarian/primary peritoneal/fallopian tube cancer (OC), (part 1/2), or BRCA+ breast cancer (BC), or OC (part 3).
(§3) Best tumor responses were compared between patients from Part 1 who received IR-v as the primary treatment and patients in Part 2 and Part 3 of the study who received ER-v formulation C. […]

breast cancer = assay: Best tumor response in patients with breast cancer; details: patients with BC, 6/16
Text: as §1, §2, §3

[1] = tested on: tumor growth (sum of the longest diameter for all target lesions); assay: Exposure-response tumor growth inhibition model (NONMEM nonlinear mixed-effects); details: final tumor growth inhibition model
Text: Fifty-four subjects (39 with ovarian, fallopian tube, or peritoneal cancers, 14 with breast cancer, and 1 with prostate cancer) were included in an exposure-response analysis using nonlinear mixed-effects modeling approach with NONMEM software (version 7.3.0) (Table 6).
Veliparib pharmacokinetics (PK) was described with a one-compartment model with first-order elimination process (kel) (FIG. 4). For the IR formulation, absorption was modeled as a first-order process (ka) (Equations 1a and 1b). For the ER formulation, the absorption was modeled as a zero-order process (Dose/Duration) (Equations 2a and 2b).
Subsequently, the relationship between veliparib PK exposure and longitudinal tumor growth inhibition was analyzed. The time course of tumor growth inhibition was modeled using an exponential tumor growth model represented by a single tumor compartment linked to veliparib central compartment with linear inhibitory effect of veliparib on tumor growth (see FIG. 4 and Equation 3). The possible measurement error at the baseline was accounted for by allowing individual deviations from the observed baseline as between-subject variability. Inter-individual variability was incorporated on the slope and estimated baseline using exponential function and the residual variability was characterized using additive error. […]

C[C@]1(c2nc3c(C(N)=O)cccc3[nH]2)CCCN1 [veliparib, 2-[(2R)-2-methylpyrrolidin-2-yl]-1H-benzimidazole-4-carboxamide]
Confirmed and unconfirmed responses (ovarian cancer): 18% | Confirmed and unconfirmed responses (breast cancer): 38% | BRCA effect on Slope (i.e., ratio of Slope for BRCA-mut to Slope for BRCA-wt), Population Estimate [1]: 1.72
